# Measurements: PubChem BioAssay (NCI)
#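 In this assay, cells in 96-well plates receive the compound at five concentrations for 48 hours. Endpoints are linearly interpolated between the surrounding concentrations. Here, GI50 denotes the concentration required for 50% inhibition of growth. At the TGI there is no net growth.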
# Tests used:
# Assay in all cases: inhibition of tumour cell growth, NCI panel, 48 h
# NCI/ADR-RES ovarian = tested on: NCI/ADR-RES ovarian
# MCF7 breast = tested on: MCF7 breast
# T-47D breast = tested on: T-47D breast
# PC-3 prostate = tested on: PC-3 prostate
# MDA-MB-435 = tested on: MDA-MB-435
# DLD-1 colon = tested on: DLD-1 colon
# KM20L2 colon = tested on: KM20L2 colon
# M19-MEL melanoma = tested on: M19-MEL melanoma
# SNB-78 CNS = tested on: SNB-78 CNS
Compound,GI50 (NCI/ADR-RES ovarian),TGI (NCI/ADR-RES ovarian),GI50 (MCF7 breast),TGI (MCF7 breast),GI50 (T-47D breast),TGI (T-47D breast),GI50 (PC-3 prostate),TGI (PC-3 prostate),GI50 (MDA-MB-435),TGI (MDA-MB-435),TGI (DLD-1 colon),TGI (KM20L2 colon),TGI (M19-MEL melanoma),TGI (SNB-78 CNS)
O=C1c2cccnc2C(=O)c2c1c(C(=O)OCCCN1CCOCC1)c1ccccn21,< 0.01 µM,2.21 µM,< 0.01 µM,< 0.0116 µM,0.178 µM,5.94 µM,0.0147 µM,4.94 µM,< 0.0118 µM,2.06 µM,,,,
CC(C)(C)n1cc(-c2ccnc(NCCNS(=O)(=O)c3ccc(Br)cc3)c2)c(-c2cccc(O)c2)n1,2.13 µM,4.99 µM,1.48 µM,3.7 µM,1.65 µM,5.44 µM,1.46 µM,4.38 µM,1.78 µM,3.35 µM,,,,
O=C(Cc1nc2ccc(C(=O)c3ccccc3)cc2[nH]c1=O)C(=O)Nc1ccccc1[N+](=O)[O-],,> 100 µM,,> 100 µM,,> 100 µM,,> 100 µM,,> 100 µM,,,,
O=C1C=C(Nc2cccc(Br)c2)c2ccccc2C1=O,10.8 µM,51.6 µM,2.71 µM,24.2 µM,,,8.68 µM,> 100 µM,0.19 µM,0.484 µM,,,,
O=C(OCc1ccccc1CN1CCOCC1)c1ccc(Br)cc1,,> 100 µM,,> 100 µM,,> 100 µM,,> 100 µM,,95.2 µM,,,,
CCCCCCCCCCCCCCCC[N+]1(CC)CCCC1,12.9 µM,38.4 µM,,,0.528 µM,3.93 µM,0.284 µM,1.15 µM,,,,,,
c1ccc2c(c1)nc(NCCN1CCNCC1)c1c3ccccc3[nH]c21,1.52 µM,7.63 µM,0.0799 µM,0.709 µM,0.903 µM,3.83 µM,0.356 µM,1.97 µM,0.798 µM,2.24 µM,,,,
CC1Cc2c(N(C)C)ncnc2N(C)c2ccc(Cl)cc21 (stereo not drawn),2.4 µM,23.9 µM,1.51 µM,> 100 µM,6.56 µM,> 100 µM,3.41 µM,81.6 µM,0.397 µM,> 100 µM,,,,
O=C1[C@H]2C(c3ccccc3)=NN(C(=O)c3ccccc3)[C@H]2C(=O)N1c1ccccc1,,,,,,,,,,,> 100 µM,,,
CN1CCCC1c1cccnc1.O=C(O)c1ccccc1O.O=C([O-])c1ccccc1[OH2+].O=C([O-])c1ccccc1[OH2+].O=C([O-])c1ccccc1[OH2+].[Mn+2] (stereo not drawn),> 100 µM,> 100 µM,50 µM,> 100 µM,> 100 µM,> 100 µM,95.5 µM,> 100 µM,> 100 µM,> 100 µM,,,,
COc1ccc(S(=O)(=O)N/N=C/C(=O)O)cc1,,1030 µM,,> 1210 µM,,> 1250 µM,,> 1250 µM,,> 1250 µM,> 1250 µM,> 1250 µM,> 1250 µM,> 1250 µM
O=C(CCCCCCCCC(=O)OCC1OC(n2cnc3c(=O)[nH]cnc32)C(O)C1O)OCC1OC(n2cnc3c(=O)[nH]cnc32)C(O)C1O (stereo not drawn),,,,,,,,,,,> 100 µM,> 100 µM,> 100 µM,> 100 µM
CC[C@]12C=CCN3CC[C@]4(C(=C(C(=O)OC)C1)Nc1cc(O)ccc14)[C@@H]32,14.4 µM,33.6 µM,19.1 µM,45.5 µM,22.4 µM,87.7 µM,21.2 µM,50.5 µM,3.63 µM,16.8 µM,,,,
